The record followed here is patent publication US10508085B2, “Compounds and methods for IDO and TDO modulation, and indications therefor” (Plexxikon Inc., priority 2016, dated 2019).

Experiment [1] concerns the target T1, Human Indoleamine 2,3-dioxygenase (IDO) (Homo sapiens, UniProt P14902).
T1 construct: His tag (N); made in house; host or cells: E. coli
The experiment is described as follows: Human IDO enzymatic assay (kynurenine level). Type of experiment: biochemical. The settings on record: 6 nM IDO, 10 μM L-Trp; geometric mean; read-out: IDO1 GMean: IC50 (μM) (Biochemical Assay). The procedure, abridged: (§1)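 N-His human IDO (6 nM, 10 μM L-Trp, 5 μM methylene blue, 20 min) or TDO (1 nM, 350 μM L-Trp, 0.4 μM methylene blue, 70 min) run at room temp in pH 6.5 phosphate with ascorbate, catalase, Tween 20. TCA stop, 30 min 50 °C converts N-formylkynurenine to kynurenine; IC50 by nonlinear regression.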

Experiment [2] addresses T2, Human Tryptophan 2,3-dioxygenase (TDO) (Homo sapiens, UniProt P48775).
T2 construct: His tag (N); made in house; host or cells: E. coli
The experiment is described as follows: Human TDO enzymatic assay (kynurenine level). In kind it is biochemical. The settings on record: 1 nM TDO, 350 μM L-Trp; geometric mean; read-out: TDO GMean: IC50 (μM) (Biochemical Assay). The procedure, abridged:
as §1

The target in experiment [3] is T3, human IDO (IDO1-expressing HEK293 cells) (Homo sapiens, UniProt P14902).
T3 construct: expressed in transfected cells
T3 sequence (P14902 whole entry): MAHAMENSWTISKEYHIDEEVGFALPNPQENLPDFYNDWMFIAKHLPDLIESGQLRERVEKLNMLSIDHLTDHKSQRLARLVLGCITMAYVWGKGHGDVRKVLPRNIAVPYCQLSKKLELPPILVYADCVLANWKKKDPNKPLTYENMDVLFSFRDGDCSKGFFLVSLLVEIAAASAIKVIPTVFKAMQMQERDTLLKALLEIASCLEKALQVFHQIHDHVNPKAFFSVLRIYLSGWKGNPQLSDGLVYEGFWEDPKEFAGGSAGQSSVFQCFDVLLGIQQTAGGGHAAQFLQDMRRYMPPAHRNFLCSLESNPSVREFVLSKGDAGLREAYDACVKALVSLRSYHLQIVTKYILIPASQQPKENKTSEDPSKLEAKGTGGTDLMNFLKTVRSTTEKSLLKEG
The experiment is described as follows: Cell based kynurenine assay, IDO1-expressing HEK293 cell clones. Particulars: IDO1-expressing HEK293 cells, 24 hours, geometric mean; read-out: HEK293 IDO1 Kynurenine GMean IC50 (μM) (Cellular Assay). The procedure, abridged:
(§2)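 Cellular IDO1 and TDO activity is followed as kynurenine released by stably transfected HEK293 clones over 24 h with test compound. Controls are DMSO-treated cells and media alone.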

Experiment [4] addresses T4, human TDO (TDO-expressing HEK293 cells) (Homo sapiens, UniProt P48775).
T4 construct: expressed in transfected cells
Kind of experiment: Cell based kynurenine assay, TDO-expressing HEK293 cell clones. The settings on record: TDO-expressing HEK293 cells, 24 hours, geometric mean; read-out: HEK293 TDO Kynurenine GMean IC50 (μM) (Cellular Assay). In short, it runs like this: as §2

The term IC50 denotes the concentration at which inhibition is half-maximal.

T2 sequence (P48775 whole entry): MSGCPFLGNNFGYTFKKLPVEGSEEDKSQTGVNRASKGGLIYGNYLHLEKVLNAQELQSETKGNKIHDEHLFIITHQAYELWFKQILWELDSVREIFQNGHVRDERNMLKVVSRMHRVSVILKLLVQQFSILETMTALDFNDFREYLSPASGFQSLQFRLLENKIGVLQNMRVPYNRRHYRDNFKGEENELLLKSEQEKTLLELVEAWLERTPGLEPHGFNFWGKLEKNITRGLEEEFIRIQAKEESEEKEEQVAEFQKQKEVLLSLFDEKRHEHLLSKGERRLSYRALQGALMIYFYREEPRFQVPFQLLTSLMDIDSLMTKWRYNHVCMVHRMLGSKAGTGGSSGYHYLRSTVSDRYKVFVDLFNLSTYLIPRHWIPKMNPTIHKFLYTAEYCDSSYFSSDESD
T4 sequence (P48775 whole entry): as above
T1 sequence (P14902 whole entry): as the sequence (P14902 whole entry) above

Take `CC(C)(C1CCN(C(=O)c2cccnc2)CC1)C(O)c1c(F)c(Cl)cc2cn[nH]c12` (stereo not drawn) [Compound P-0418, (4-(1-(5-chloro-6-fluoro-1H-indazol-7-yl)-1-hydroxy-2-methylpropan-2-yl)piperidin-1-yl)(pyridin-3-yl)methanone]: the IC50 in experiment [1], in experiment [2], in experiment [3] and in experiment [4] was 0.0001 to 10 µM in each case.

Take `COCCNC(=O)N1CCC(C(C)(C)C(O)c2c(F)c(Cl)cc3cn[nH]c23)CC1` (stereo not drawn) [Compound P-0419, 4-(1-(5-chloro-6-fluoro-1H-indazol-7-yl)-1-hydroxy-2-methylpropan-2-yl)-N-(2-methoxyethyl) piperidine-1-carboxamide]: the IC50 in experiment [1], in experiment [2], in experiment [3] and in experiment [4] was 0.0001 to 10 µM in each case.

In the case of `COCCCNC(=O)N1CCC(C(C)(C)C(O)c2c(F)c(Cl)cc3cn[nH]c23)CC1` (stereo not drawn) [Compound P-0420, 4-(1-(5-chloro-6-fluoro-1H-indazol-7-yl)-1-hydroxy-2-methylpropan-2-yl)-N-(3-methoxypropyl) piperidine-1-carboxamide], the IC50 in experiment [1], in experiment [2], in experiment [3] and in experiment [4] was 0.0001 to 10 µM throughout.

Consider `CCC(=O)N1CCC(C(C)(C)C(O)c2c(F)c(Cl)cc3cn[nH]c23)CC1` (stereo not drawn) [Compound P-0421, 1-(4-(1-(5-chloro-6-fluoro-1H-indazol-7-yl)-1-hydroxy-2-methylpropan-2-yl)piperidin-1-yl)propan-1-one], for which the half-inhibitory concentration (IC50) in experiment [1], in experiment [2], in experiment [3] and in experiment [4] was 0.0001 to 10 µM in each case.

As to `CC(=O)N1CCC(C(C)(C)[C@@H](O)c2cc(Cl)cc3cn[nH]c23)CC1` [Compound P-0422, (R)-1-(4-(1-(5-chloro-1H-indazol-7-yl)-1-hydroxy-2-methylpropan-2-yl)piperidin-1-yl)ethan-1-one], the concentration for half-maximal inhibition (IC50) in experiment [1], in experiment [2], in experiment [3] and in experiment [4] was 0.0001 to 10 µM throughout.

For `CCC(=O)N1CCC(C(C)(C)[C@@H](O)c2cc(Cl)cc3cn[nH]c23)CC1` [Compound P-0423, (R)-1-(4-(1-(5-chloro-1H-indazol-7-yl)-1-hydroxy-2-methylpropan-2-yl)piperidin-1-yl)propan-1-one], the IC50 in experiment [1], in experiment [2], in experiment [3] and in experiment [4] was 0.0001 to 10 µM in each case.

Regarding `CC(C)(C1CCN(C(=O)C2CC2)CC1)[C@@H](O)c1cc(Cl)cc2cn[nH]c12` [Compound P-0424, (R)-(4-(1-(5-chloro-1H-indazol-7-yl)-1-hydroxy-2-methylpropan-2-yl)piperidin-1-yl)(cyclopropyl) methanone], the IC50 in experiment [1] was 0.0001 to 10 µM; in experiment [2] it was 0.0001 to 10 µM; in experiment [3], more than 10 µM; in experiment [4] it was 0.0001 to 10 µM.

As for `COCCNC(=O)N1CCC(C(C)(C)[C@@H](O)c2cc(Cl)cc3cn[nH]c23)CC1` [Compound P-0425, (R)-4-(1-(5-chloro-1H-indazol-7-yl)-1-hydroxy-2-methylpropan-2-yl)-N-(2-methoxyethyl) piperidine-1-carboxamide], the IC50 in experiment [1], in experiment [2], in experiment [3] and in experiment [4] was 0.0001 to 10 µM each time.

On to `CC(C)(C1CCN(C(N)=O)CC1)[C@@H](O)c1cc(Cl)cc2cn[nH]c12` [Compound P-0426, (R)-4-(1-(5-chloro-1H-indazol-7-yl)-1-hydroxy-2-methylpropan-2-yl)piperidine-1-carboxamide], for which the IC50 in experiment [1] was 0.0001 to 10 µM; in experiment [2], 0.0001 to 10 µM; in experiment [3], more than 10 µM; in experiment [4], 0.0001 to 10 µM.

For the compound `CNC(=O)N1CCC(C(C)(C)[C@@H](O)c2cc(Cl)cc3cn[nH]c23)CC1` [Compound P-0427, (R)-4-(1-(5-chloro-1H-indazol-7-yl)-1-hydroxy-2-methylpropan-2-yl)-N-methylpiperidine-1-carboxamide], the IC50 in experiment [1], in experiment [2], in experiment [3] and in experiment [4] was 0.0001 to 10 µM each time.

For `CCNC(=O)N1CCC(C(C)(C)[C@@H](O)c2cc(Cl)cc3cn[nH]c23)CC1` [Compound P-0428, (R)-4-(1-(5-chloro-1H-indazol-7-yl)-1-hydroxy-2-methylpropan-2-yl)-N-ethylpiperidine-1-carboxamide], the IC50 in experiment [1] was 0.0001 to 10 µM; in experiment [2], 0.0001 to 10 µM; in experiment [3] it was more than 10 µM; in experiment [4], 0.0001 to 10 µM.

In the case of `CC(C)NC(=O)N1CCC(C(C)(C)[C@@H](O)c2cc(Cl)cc3cn[nH]c23)CC1` [Compound P-0429, (R)-4-(1-(5-chloro-1H-indazol-7-yl)-1-hydroxy-2-methylpropan-2-yl)-N-isopropylpiperidine-1-carboxamide], the IC50 is 0.0001 to 10 µM in experiment [1], 0.0001 to 10 µM in experiment [2], more than 10 µM in experiment [3] and 0.0001 to 10 µM in experiment [4].

As for `CC(C)(C1CCN(C(=O)Nc2cccnc2)CC1)[C@@H](O)c1cc(Cl)cc2cn[nH]c12` [Compound P-0430, (R)-4-(1-(5-chloro-1H-indazol-7-yl)-1-hydroxy-2-methylpropan-2-yl)-N-(pyridin-3-yl)piperidine-1-carboxamide], the IC50 in experiment [1], in experiment [2], in experiment [3] and in experiment [4] was 0.0001 to 10 µM in each case.

As to `CC(C)(C1CCN(C(=O)Nc2ccccc2)CC1)[C@@H](O)c1cc(Cl)cc2cn[nH]c12` [Compound P-0431, (R)-4-(1-(5-chloro-1H-indazol-7-yl)-1-hydroxy-2-methylpropan-2-yl)-N-phenylpiperidine-1-carboxamide], the IC50 in experiment [1] was in the range of 10 to 100 µM; in experiment [2] it was 0.0001 to 10 µM; in experiment [3], 0.0001 to 10 µM; in experiment [4], 0.0001 to 10 µM.

Regarding `CC(C)(C1CCN(C(=O)Nc2ccccc2Cl)CC1)[C@@H](O)c1cc(Cl)cc2cn[nH]c12` [Compound P-0432, (R)-4-(1-(5-chloro-1H-indazol-7-yl)-1-hydroxy-2-methylpropan-2-yl)-N-(2-chlorophenyl) piperidine-1-carboxamide], the IC50 in experiment [1] is 0.0001 to 10 µM; in experiment [2], 0.0001 to 10 µM; in experiment [3], more than 10 µM; in experiment [4] it was 0.0001 to 10 µM.

For the compound `CC(C)(C1CCN(C(=O)Nc2ccc(Cl)cc2)CC1)[C@@H](O)c1cc(Cl)cc2cn[nH]c12` [Compound P-0433, (R)-4-(1-(5-chloro-1H-indazol-7-yl)-1-hydroxy-2-methylpropan-2-yl)-N-(4-chlorophenyl) piperidine-1-carboxamide], the IC50 in experiment [1] is more than 200 µM; in experiment [2], 0.0001 to 10 µM; in experiment [3], 0.0001 to 10 µM; in experiment [4], 0.0001 to 10 µM.

Consider `CC(C)(C1CCN(C(=O)Nc2cccc(F)c2)CC1)[C@@H](O)c1cc(Cl)cc2cn[nH]c12` [Compound P-0434, (R)-4-(1-(5-chloro-1H-indazol-7-yl)-1-hydroxy-2-methylpropan-2-yl)-N-(3-fluorophenyl) piperidine-1-carboxamide], for which the IC50 in experiment [1] was in the range of 10 to 100 µM; in experiment [2], 0.0001 to 10 µM; in experiment [3], 0.0001 to 10 µM; in experiment [4], 0.0001 to 10 µM.

For `COCC(=O)N1CCC(C(C)(C)[C@@H](O)c2cc(Cl)cc3cn[nH]c23)CC1` [Compound P-0435, (R)-1-(4-(1-(5-chloro-1H-indazol-7-yl)-1-hydroxy-2-methylpropan-2-yl)piperidin-1-yl)-2-methoxyethan-1-one], the IC50 in experiment [1], in experiment [2], in experiment [3] and in experiment [4] was 0.0001 to 10 µM each time.

In the case of `CC(C)(C1CCN(C(=O)CC#N)CC1)[C@@H](O)c1cc(Cl)cc2cn[nH]c12` [Compound P-0436, (R)-3-(4-(1-(5-chloro-1H-indazol-7-yl)-1-hydroxy-2-methylpropan-2-yl)piperidin-1-yl)-3-oxopropanenitrile], the IC50 in experiment [1], in experiment [2], in experiment [3] and in experiment [4] was 0.0001 to 10 µM each time.

Regarding `CC(C)(C1CCN(C(=O)Nc2ccccc2C(F)(F)F)CC1)[C@@H](O)c1cc(Cl)cc2cn[nH]c12` [Compound P-0437, (R)-4-(1-(5-chloro-1H-indazol-7-yl)-1-hydroxy-2-methylpropan-2-yl)-N-(2-(trifluoromethyl)phenyl)piperidine-1-carboxamide], the IC50 in experiment [1] is 0.0001 to 10 µM; in experiment [2] it was 0.0001 to 10 µM; in experiment [3], more than 10 µM; in experiment [4], more than 10 µM.

Regarding `CC(C)(C(O)c1cc(Cl)cc2cn[nH]c12)[C@H]1C[C@H]2CC[C@@H](C1)N2C(=O)NCC(F)(F)F` (stereo partly drawn) [Compound P-0438, (1R,3r,5S)-3-(1-(5-chloro-1H-indazol-7-yl)-1-hydroxy-2-methylpropan-2-yl)-N-(2,2,2-trifluoroethyl)-8-azabicyclo[3.2.1] octane-8-carboxamide], the IC50 in experiment [1], in experiment [2], in experiment [3] and in experiment [4] was 0.0001 to 10 µM each time.
